Experimental data from US10370372B2, “Fused pyrimidine compound or salt thereof” (TAIHO PHARMACEUTICAL CO., LTD., priority 2015, dated 2019).
Where two headings read alike, the source gives them in different places.

How the values were obtained:
Assay type in all cases: cell-based
AR expression in LNCaP = assay: Activity of reducing expression level of androgen receptor (Western blotting in LNCaP); settings: Homo sapiens, 48 h, read-out: AR expression reducing activity
Experimental: AR positive human prostate cancer cells LNCaP were seeded in a 6 well microplate (BD) at 3.5×10^5/well with RPMI1640 containing 5% FBS (hereinbelow, the medium is referred to as an evaluation medium), and then cultured overnight. […] After culture for 48 hours, the medium was removed and the cells were washed with PBS and added with 0.1 mL of Lysis buffer (M-PER added with Protease Inhibitor Cocktail), followed by keeping at 4° C. for 20 minutes. After cell lysis, the cell solution was centrifuged to recover the supernatant as cell lysate. […] The antibody-reacting band (anti AR receptor) was quantified by LAS Imaging System (FUJIFILM) using Super Signal West Dura Substrate (Thermo Scientific) as a detection reagent.
When the AR expression reducing activity is 50% or more, it is described as “reduced”.

human androgen receptor = target: T1, human androgen receptor (Homo sapiens, UniProt P10275); assay: Antagonist activity for AR: MMTV-luc reporter transcription in COS-7 cells transfected with human AR, stimulated with DHT
T1 construct: expressed in transfected cells; host or cells: COS-7 cells (ATCC)
T1 sequence (P10275 1-920): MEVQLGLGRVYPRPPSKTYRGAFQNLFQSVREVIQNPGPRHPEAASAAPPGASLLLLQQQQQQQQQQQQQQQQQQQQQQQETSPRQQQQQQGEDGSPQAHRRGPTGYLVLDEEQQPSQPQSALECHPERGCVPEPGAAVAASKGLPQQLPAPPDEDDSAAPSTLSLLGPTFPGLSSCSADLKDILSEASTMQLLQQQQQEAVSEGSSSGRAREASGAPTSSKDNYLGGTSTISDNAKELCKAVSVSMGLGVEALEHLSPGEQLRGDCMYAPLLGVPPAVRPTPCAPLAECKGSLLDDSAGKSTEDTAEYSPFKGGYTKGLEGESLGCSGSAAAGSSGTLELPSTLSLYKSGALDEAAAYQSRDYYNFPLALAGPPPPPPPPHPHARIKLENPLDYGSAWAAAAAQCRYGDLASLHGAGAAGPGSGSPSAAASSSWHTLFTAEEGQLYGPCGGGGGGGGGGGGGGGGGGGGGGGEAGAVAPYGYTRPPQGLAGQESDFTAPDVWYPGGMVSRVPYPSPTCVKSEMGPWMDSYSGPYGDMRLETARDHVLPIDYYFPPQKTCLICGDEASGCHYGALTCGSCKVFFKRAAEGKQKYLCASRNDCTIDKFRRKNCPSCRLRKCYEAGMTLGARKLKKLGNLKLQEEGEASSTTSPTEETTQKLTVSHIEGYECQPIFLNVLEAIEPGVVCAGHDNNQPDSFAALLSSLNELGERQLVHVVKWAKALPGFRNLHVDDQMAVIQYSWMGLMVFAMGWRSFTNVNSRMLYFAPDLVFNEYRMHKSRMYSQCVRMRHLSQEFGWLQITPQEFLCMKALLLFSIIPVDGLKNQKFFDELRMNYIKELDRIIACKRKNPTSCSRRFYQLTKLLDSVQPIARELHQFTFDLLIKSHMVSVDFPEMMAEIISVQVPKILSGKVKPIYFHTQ
Experimental: Antagonist activity for AR was evaluated according to the following method. COS-7 cells (ATCC) were transfected with pMMTV-luc vector (reporter plasmid having, as an androgen response element, […] long terminal repeat) and pEX-hAR vector (human androgen receptor expression vector: which expresses human AR gene under control of CMV promoter) by using Nucleofector (registered trademark) Kit R (Lonza) as a transfection reagent and Amaxa (Lonza). The COS-7 cells obtained after transfection were seeded in a clear bottom 96 well microplate (BD) at 1.5×10^4/well with phenol red free RPMI1640 containing 10% charcoal-treated fetal bovine serum (hereinbelow, DCC-FBS) (hereinbelow, the medium is referred to as an evaluation medium), and then cultured overnight. […] Then, the transcription activity value of the reporter plasmid was measured. The transcription activity was measured by using Bright-Glo™ Luciferase Assay System (Promega).

[1] = test system: Human prostate cancer cells LNCaP; assay: Inhibitory activity on androgen-dependent proliferation of prostate cancer cells; settings: 1 nmol/L DHT, 72 hours, Cell Counting Kit-8, read-out: Proliferation inhibition concentration GI50 value
Experimental: Human prostate cancer cells LNCaP (Non-Patent Literature 5) having […] androgen receptor gene were seeded in a clear bottom 96 well microplate (BD) at 4.0×10^3/well with phenol red free RPMI1640 containing 5% DCC-FBS (hereinbelow, the medium is referred to as an evaluation medium), and then cultured overnight. […] Then, the number of viable cells was measured. The number of viable cells was measured by using Cell Counting Kit-8 (DOJINDO LABORATORIES).

[2] = test system: AR positive human prostate cancer cells VCaP; assay: Agonist activity for AR: cell proliferation rate of VCaP cells; settings: 5-10000 nmol/L, 72 hours, relative to evaluation medium only, more than 10% = agonist activity
Experimental: Then, the number of viable cells was measured (test group). As a control, the cells were cultured after being added with the evaluation medium only, and the number of viable cells was measured (control group). The number of viable cells was measured by using CellTiter-Glo™ Luminescent Cell Viability Assay (Promega). From the measured number of viable cells, cell proliferation rate with respect to the compound of Examples or the compound of Comparative Examples was calculated based on the number of viable cells measured in the case of using the evaluation medium only. Cell proliferation rate (%)=(Number of viable cells in test group−Number of viable cells in control group)/(Number of viable cells in control group)×100
By considering an error in the number of viable cells measured in the case of using the evaluation medium only, when the cell proliferation rate was more than 10% at any concentration of the 8 concentrations which had been evaluated, it was determined to have an agonist activity for AR.

Compound	inhibition at 10 µM (AR expression in LNCaP)	IC50 (human androgen receptor)	GI50 [1]	Cell proliferation rate (%) [2]	IC50 (human androgen receptor; COS-7 cells with pMMTV-luc and pEX-hAR, 1 nmol/L DHT, 24 hours, read-out: AR antagonist IC50)
C#CCNC(=O)c1ccc(Nc2ncnc3c2CCN(c2ccc(C#N)c(C(F)(F)F)c2)C3)nn1 [Example 11, 6-((7-(4-cyano-3-(trifluoromethyl)phenyl)-5,6,7,8-tetrahydropyrido[3,4-d]pyrimidin-4-yl)amino)-N-(prop-2-yn-1-yl)pyridazine-3-carboxamide]	> 50%	25 nM	950 nM	4.9%	–
CC(=O)N1CCN(CCCOc2ccc(Nc3ncnc4c3CCN(c3ccc(C#N)c(Cl)c3)C4)cc2C(F)(F)F)CC1 [Example 43, 4-(4-((4-(3-(4-acetylpiperazin-1-yl)propoxy)-3-(trifluoromethyl)phenyl)amino)-5,6-dihydropyrido[3,4-d]pyrimidin-7(8H)-yl)-2-chlorobenzonitrile]	> 50%	300 nM	380 nM	8.4%	–
CC(C)(C)ONC(=O)c1ccc(Nc2ncnc3c2CCN(c2ccc(C#N)c(C(F)(F)F)c2)C3)nc1 [Example 7, N-(tert-butoxy)-6-((7-(4-cyano-3-(trifluoromethyl)phenyl)-5,6,7,8-tetrahydropyrido[3,4-d]pyrimidin-4-yl)amino)nicotinamide]	> 50%	–	180 nM	0.90%	380 nM
